Source: patent publication US6287840A (Axys Pharmaceuticals, Inc., priority 1999, dated 2001)
Where a name gives a salt, the structure may show the parent alone.

Tests used:
[1] = biological target: T1, Cathepsin L from rat liver (Rattus norvegicus, UniProt P07154); experiment: Inhibition of cathepsin L, Z-Phe-Arg-AMC fluorescence progress curves; assay type: biochemical; details: for k/KI (kirr/KI): values without asterisk
T1 construct: Cathepsin L from rat liver; from tissue; host or cells: rat liver
Method: (§1) Stock solutions of the various inhibitors (10 mM) were made in DMF; dilutions were made in the same solvent. Cathepsin L from rat liver, (see Mason et al., Biochem. J. 226:233-241 (1985)) was approximately 1 nM in the assay. The assay buffer contained 50 mM phosphate at pH 6:2, 2.5 mM dithiothreitol (DTT), and 2.5 mM ethylenediaminetetraacetic acid (EDTA). The substrate for cathepsin L was 5 μM Z-Phe-Arg-AMC (carbobenzyloxyphenylalanylarginylaminomethylcoumarin). The assays were initiated at 25° C. by addition of enzyme to 2 mL of assay buffer containing the substrate and the various inhibitors (30-0.001 μM). The increase in fluorescence at 460 nm with excitation at 380 nm was followed with time. Inactivation of cathepsin L was indicated by a downward curve in the increase in fluorescence with time. In the absence of inhibitors, the enzymatic production of free AMC was linear throughout the time course of inactivation examined. Data points were collected over at least 3 half-times of inactivation. The inhibition progress curves were analyzed using non-linear curve fitting software to compute the kobs values. Approximate second-order inactivation constants (kobs /[I]) were calculated for all compounds. For selected inhibitors, plots of 1/[I] vs. 1/kobs yielded the true constants kirr, KI, and kirr/KI and were corrected for the presence of substrate by dividing KI (app.) by (1+[S]/Km).

cruzain, from T. cruzi = cruzain, from T. cruzi (Trypanosoma cruzi, UniProt P25779); experiment: Inhibition of cruzain, as for cathepsin L; assay type: biochemical; details: for kobs /[I]* (approximate second-order inactivation constant) / kinact/KI: values marked *; for k/KI (kirr/KI): values without asterisk; for kinact/KI: pH 6.2, read-out: kobs /[I]* (approximate second-order inactivation constant)
Method: as §1
Inhibition of cruzain, from T. cruzi, (see Eakin et at., J. Biol. Chem. 268(9): 6115-6118 (1993)) proceeded exactly as for cathepsin L, outlined above, using an enzyme concentration of 1 nM.

calpain = experiment: Inhibition (inactivation) of calpain, Suc-Leu-Tyr-AMC; assay type: biochemical; details: pH 7.5, 5 mM CaCl2, 25° C.; for k/KI (kirr/KI): values without asterisk; for kobs /[I]*: values marked * (or %)
Method: The inhibitors were tested against calpain at 1 or 2% as for the other enzymes. The reaction conditions were 50 mM Tris, pH 7.5, 5 mM CaCl2, 2.5 mM DTT, assayed at 25° C. The substrate was 100 μM Suc-Leu-Tyr-AMC.

[2] = biological target: T2, Cathepsin B from human placenta (Homo sapiens, UniProt P07858); experiment: Inhibition of cathepsin B, Z-Arg-Arg-AMC fluorescence progress curves; assay type: biochemical; details: for k/KI (kirr/KI): values without asterisk
T2 construct: Cathepsin B from human placenta, obtained from Sigma; purchased Sigma; host or cells: human placenta (tissue)
Method: Stock solutions of the various inhibitors (10 mM) were made in DMF; dilutions were made in the same solvent. Cathepsin B from human placenta, obtained from Sigma, was approximately 10 nM in the assay. The assay buffer contained 50 mM phosphate at pH 6.2, 2.5 mM dithiothreitol (DTT), and 2.5 mM ethylenediaminetetraacetic acid (EDTA). The substrate for cathepsin B was 50 μM Z-Arg-Arg-AMC (carbobenzyloxyarginylarginylaminomethylcoumarin). The assays were initiated at 25° C. by addition of enzyme to 2 mL of assay buffer containing the substrate and the various inhibitors (30-0.001 (μM). The increase in fluorescence at 460 nm with excitation at 380 nm was followed with time, and the assay was linear throughout the range observed. Inactivation of cathepsin B was indicated by a downward curve in the increase in fluorescence with time. In the absence of inhibitors, the enzymatic production of free AMC was linear throughout the time course of inactivation examined. Data points were collected over at least 3 half-times of inactivation, and in duplicate. The inhibition progress curves were analyzed using non-linear curve fitting software to compute the kobs values. Approximate second-order inactivation constants (kobs /[I]) were calculated for all compounds. For selected inhibitors, plots of 1/[I] vs. 1/kobs yielded the true constants kirr, KI, and kirr /KI, and were corrected for the presence of substrate by dividing KI (app.) by {1+[S]/Km }.

Cloned cathepsin S = biological target: T3, Cloned cathepsin S (Homo sapiens, UniProt P25774); experiment: Inhibition of cathepsin S, Z-Val-Val-Arg-AMC fluorescence progress curves; assay type: biochemical
T3 construct: made in house
Method: Stock solutions of the various inhibitors (10 mM) were made in DMF; dilutions were made in the same solvent. Cloned cathepsin S, (see Bromme et al., J. Biol. Chem. 268(&): 4832-4838 (1993)) was less than 1 nM in the assay. The assay buffer contained 100 mM phosphate at pH 6.5, 0.01% Triton, 2.5 mM dithiothreitol (DTT), and 2.5 mM ethylenediaminetetraacetic acid (EDTA). The substrate for cathepsin S was 10 μM Z-Val-Val-Arg-AMC (carbobenzyloxyvalinylvalinylarginylaminomethylcoumarin). The assays were initiated at 25° C. by addition of enzyme to 2 mL of assay buffer containing the substrate and the various inhibitors (30-0.001 μM). The increase in fluorescence at 460 nm with excitation at 380 nm was followed with time. Inactivation of cathepsin S was indicated by a downward curve in the increase in fluorescence with time. In the absence of inhibitors, the enzymatic production of free AMC was linear throughout the time course of inactivation examined. Data points were collected over at least 3 half-times of inactivation. The inhibition progress curves were analyzed using non-linear curve fitting software to compute the kobs values. Approximate second-order inactivation constants (kobs /[I]) were calculated for all compounds. For selected inhibitors, plots of 1/[I] vs. 1/kobs yielded the true constants kirr, KI, and kirr /KI, and were corrected for the presence of substrate by dividing KI (app.) by {1+[S]/Km}.

[3] = system: Trypanosoma cruzi amastigote infected macrophages; experiment: In vitro antiprotozoal activity, Trypanosoma cruzi; assay type: cell-based
Method: (§2) In this table, the in vitro antiprotozoal activities of the indicated compounds were measured as percentage inhibition of Leishmania donovani amastigote infecteda mouse peritoneal macrophages, Trypanosoma cruzi amastigote infected macrophages, and Trypanosoma brucei extracellular bloodstream forms.

[4] = system: Leishmania donovani amastigote infected mouse peritoneal macrophages; experiment: In vitro antiprotozoal activity, Leishmania donovani; assay type: cell-based
Method: as §2

[5] = system: Trypanosoma brucei extracellular bloodstream forms; experiment: In vitro antiprotozoal activity, Trypanosoma brucei; assay type: cell-based
Method: as §2

[6] = system: human malarial parasite Plasmodium falciparum; experiment: In vitro protease activity of malarial parasite, substrate Z-Phe-Arg-AMC; assay type: biochemical; details: cells printed in μM; read-out: P. falciparum IC50 (human)
From the text: The following table summarizes the comparative IC50 values for selected cysteine protease inhibitors against the human malarial parasite Plasmodium falciparum and the mouse malarial parasite Plasmodium vinckei. The substrate used to measure in vitro protease activity was Z-Phe-Arg-AMC.

T1 sequence (P07154 114-288 limits assumed): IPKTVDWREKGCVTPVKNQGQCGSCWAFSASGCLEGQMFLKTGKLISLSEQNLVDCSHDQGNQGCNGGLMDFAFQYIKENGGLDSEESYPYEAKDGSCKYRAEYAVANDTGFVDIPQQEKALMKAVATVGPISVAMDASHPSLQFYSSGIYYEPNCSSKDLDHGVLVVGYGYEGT
T1 sequence (P07154 291-334 limits assumed): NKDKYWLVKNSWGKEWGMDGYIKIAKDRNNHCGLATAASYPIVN
cruzain, from T. cruzi, sequence (P25779 123-337 limits assumed): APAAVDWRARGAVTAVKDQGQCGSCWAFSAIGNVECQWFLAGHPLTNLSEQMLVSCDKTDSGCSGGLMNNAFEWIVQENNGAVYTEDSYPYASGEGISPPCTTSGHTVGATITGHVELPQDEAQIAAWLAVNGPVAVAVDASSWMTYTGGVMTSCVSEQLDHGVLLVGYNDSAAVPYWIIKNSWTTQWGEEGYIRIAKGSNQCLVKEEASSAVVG
T3 sequence (P25774 115-331): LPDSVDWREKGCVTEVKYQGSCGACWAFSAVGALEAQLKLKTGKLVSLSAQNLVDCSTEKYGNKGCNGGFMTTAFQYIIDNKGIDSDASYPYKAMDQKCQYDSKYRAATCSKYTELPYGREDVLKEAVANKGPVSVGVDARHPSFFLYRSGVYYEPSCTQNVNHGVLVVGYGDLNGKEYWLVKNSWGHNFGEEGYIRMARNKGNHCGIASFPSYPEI

## CC(Cc1ccccc1)(NC(=O)N1CCOCC1)C(=O)N[C@H](/C=C/S(=O)(=O)c1ccccc1)CCc1ccccc1 (mixture of isomers) [Mu-DL-Fam-HphVSPh]
[1]; corrected for substrate
  KI: binds
[1]; 25° C., pH 6.2
  k/KI (kirr/KI): 0 M⁻¹ s⁻¹
cruzain, from T. cruzi
  kobs /[I]* (approximate second-order inactivation constant): 18,100 M^-1 sec^-1
calpain
  k/KI (kirr/KI): 0 M⁻¹ s⁻¹
[2]; corrected for substrate
  KI: binds
[2]; 25° C., pH 6.2
  k/KI (kirr/KI): 0 M⁻¹ s⁻¹
Cloned cathepsin S
  kirr: 0.54 s⁻¹
Cloned cathepsin S; corrected for substrate
  Ki: 14 µM
Cloned cathepsin S; values without asterisk, 25° C., pH 6.5
  k/KI (kirr/KI): 39,000 M^-1 sec^-1

## CSCC[C@@H](/C=C/S(=O)(=O)c1ccccc1)NC(=O)[C@H](CC(C)C)NC(=O)[C@H](CC(C)C)NC(C)=O [Ac-Leu-Leu-MetVSPh, (S)-(E)-3-(acetylleucylleucyl)amino-1-phenylsulfonyl-6-thia-1-heptene]
[1]; 25° C., pH 6.2
  k/KI (kirr/KI): 880,000 M^-1 sec^-1
cruzain, from T. cruzi
  k/KI (kirr/KI): 110,000 M^-1 sec^-1
calpain
  kobs /[I]*: 5,600 M^-1 sec^-1
[2]; 25° C., pH 6.2
  k/KI (kirr/KI): 0 M⁻¹ s⁻¹

## CCCC[C@@H](/C=C/S(=O)(=O)c1ccccc1)NC(=O)[C@H](CC(C)C)NC(=O)[C@H](CC(C)C)NC(C)=O [Ac-Leu-Leu-NleVSPh, (S)-(E)-3-(acetylleucylleucyl)amino-1-phenylsulfonyl-1-heptene]
[1]; 25° C., pH 6.2
  k/KI (kirr/KI): 930,000 M^-1 sec^-1
cruzain, from T. cruzi
  k/KI (kirr/KI): 133,000 M^-1 sec^-1
calpain
  kobs /[I]*: 6,900 M^-1 sec^-1
[2]; 25° C., pH 6.2
  k/KI (kirr/KI): 0 M⁻¹ s⁻¹

## CC(=O)N[C@@H](Cc1ccc(O)cc1)C(=O)N[C@H](C(=O)N[C@@H](C)C(=O)NC(/C=C/S(=O)(=O)c1ccccc1)CC(=O)O)C(C)C (stereo partly drawn) [Ac-Tyr-Val-Ala-AspVSPh, (e)-3-acetyltyrosylvalylalanylamino-4-hydroxycarbonyl-1-phenylsulfonyl-1-butene]
[1]; 25° C., pH 6.2
  k/KI (kirr/KI): 0 M⁻¹ s⁻¹
cruzain, from T. cruzi
  k/KI (kirr/KI): 0 M⁻¹ s⁻¹
calpain
  k/KI (kirr/KI): 0 M⁻¹ s⁻¹

## CC(C)(C)OC(=O)C[C@@H](/C=C/S(C)(=O)=O)NC(=O)OC(C)(C)C [Boc-Asp(O-tBu)VSMe, (S)-(E)-3-tert-butoxycarbonylamino-4-tert-butoxycarbonyl-1-methylsulfonyl-1-butene]
[1]; 25° C., pH 6.2
  k/KI (kirr/KI): 0 M⁻¹ s⁻¹
cruzain, from T. cruzi
  kinact/KI: 800 M⁻¹ s⁻¹
calpain
  k/KI (kirr/KI): 0 M⁻¹ s⁻¹
[3]; Trypanosoma cruzi, Macrophage, 3 uM, read-out: percentage inhibition, T. cruzi
  inhibition at 3 µM: 0%
[3]; Trypanosoma cruzi, Macrophage, 10 uM, read-out: percentage inhibition, T. cruzi
  inhibition at 10 µM: 0%
[3]; Trypanosoma cruzi, Macrophage, 30 uM, read-out: percentage inhibition, T. cruzi
  inhibition at 30 µM: 0%
[3]; Trypanosoma cruzi, Macrophage, 90 uM, read-out: percentage inhibition, T. cruzi
  inhibition at 90 µM: 9.9%
[2]; 25° C., pH 6.2
  k/KI (kirr/KI): 0 M⁻¹ s⁻¹
[4]; Leishmania donovani, Peritoneal macrophage, 3 uM, read-out: percentage inhibition, L. donovani
  inhibition at 3 µM: 0%
[4]; Leishmania donovani, Peritoneal macrophage, 10 uM, read-out: percentage inhibition, L. donovani
  inhibition at 10 µM: 0%
[4]; Leishmania donovani, Peritoneal macrophage, 30 uM, read-out: percentage inhibition, L. donovani
  inhibition at 30 µM: 13.4%
[4]; Leishmania donovani, Peritoneal macrophage, 90 uM, read-out: percentage inhibition, L. donovani
  inhibition at 90 µM: 12.9%
[5]; Trypanosoma brucei, 3 uM, read-out: percentage inhibition, T. brucei
  inhibition at 3 µM: 0%
[5]; Trypanosoma brucei, 10 uM, read-out: percentage inhibition, T. brucei
  inhibition at 10 µM: 0%
[5]; Trypanosoma brucei, 30 uM, read-out: percentage inhibition, T. brucei
  inhibition at 30 µM: 0%
[5]; Trypanosoma brucei, 90 uM, read-out: percentage inhibition, T. brucei
  inhibition at 90 µM: 0%

## CC(N)C(=O)NC(C=CS(C)(=O)=O)Cc1ccccc1 (stereo not drawn) [HCl.Ala-PheVSMe]
[6]
  IC50: > 100 µM

## Br.Br.N=C(N)NCCC[C@@H](/C=C/S(=O)(=O)c1ccccc1)NC(=O)[C@H](CCCNC(=N)N)NC(=O)N1CCOCC1 [Mu-Arg-ARgVSPh.2HBr, (S)-(E)-3-(4-morpholinecarbonylarginyl)amino-6-guanidino-1-phenylsulfonyl-1-hexene dihydrobromide]
cruzain, from T. cruzi
  kobs /[I]* (approximate second-order inactivation constant): 2,100 M^-1 sec^-1
calpain
  kobs /[I]*: < 50 M⁻¹ s⁻¹
[2]
  kirr: 0.040 s⁻¹
[2]; corrected for substrate
  Ki: 150 µM
[2]; 25° C., pH 6.2
  k/KI (kirr/KI): 26 M⁻¹ s⁻¹

## CC(C)C[C@H](NC(=O)OCc1ccccc1)C(=O)N[C@@H](CC(C)C)C(=O)N[C@H](/C=C/S(=O)(=O)c1ccccc1)Cc1ccc(O)cc1 [Z-Leu-Leu-TyrVSPh, (S)-(E)-3-(benzyloxycarbonylleucylleucyl)amino-4-(4-hydroxyphenyl)-1-phenylsulfonyl-1-butene]
cruzain, from T. cruzi
  kinact/KI: 45000 M⁻¹ s⁻¹
calpain
  kobs /[I]*: 36,400 M^-1 sec^-1
  k/KI (kirr/KI): 24,300 M^-1 sec^-1
[2]; values marked *, 25° C., pH 6.2, read-out: kobs /[I]* (approximate second-order inactivation constant)
  kinact/KI: 730 M⁻¹ s⁻¹
Cloned cathepsin S; values marked *, 25° C., pH 6.5, read-out: kobs /[I]* (approximate second-order inactivation constant)
  kinact/KI: 280000 M⁻¹ s⁻¹

## (S)-(E)-3-(4-morpholinecarbonylphenylalanyl)amino-1-methylsulfonyl-1-butene [Mu-Phe-AlaVSMe]
[6]
  IC50: 20 µM
cruzain, from T. cruzi
  kobs /[I]* (approximate second-order inactivation constant): 700 M⁻¹ s⁻¹
calpain
  kobs /[I]*: < 50 M⁻¹ s⁻¹
[3]; 3 uM
  percentage inhibition, T. cruzi: 0%
[3]; 10 uM
  percentage inhibition, T. cruzi: 0%
[3]; 30 uM
  percentage inhibition, T. cruzi: 11.2%
[3]; 90 uM
  percentage inhibition, T. cruzi: 12.2%
[2]
  kirr: 0.19 s⁻¹
[2]; corrected for substrate
  Ki: ~1000 µM
[2]; 25° C., pH 6.2
  k/KI (kirr/KI): 300 M⁻¹ s⁻¹
[4]; 3 uM
  percentage inhibition, L. donovani: 0%
[4]; 10 uM
  percentage inhibition, L. donovani: 0%
[4]; 30 uM
  percentage inhibition, L. donovani: 0%
[4]; 90 uM
  percentage inhibition, L. donovani: 6.7%
[5]; 3 uM
  percentage inhibition, T. brucei: 0%
[5]; 10 uM
  percentage inhibition, T. brucei: 0%
[5]; 30 uM
  percentage inhibition, T. brucei: 0%
[5]; 90 uM
  percentage inhibition, T. brucei: 0%
Cloned cathepsin S; values marked *, 25° C., pH 6.5
  kobs /[I]* (approximate second-order inactivation constant): 26,000 M^-1 sec^-1

## (S)-(E)-3-(4-morpholinecarbonylphenylalanyl)amino-1-methylsulfonyl-4-phenyl-1-butene [Mu-Phe-PheVSMe]
[6]
  IC50: 2 µM
[1]; values marked *, 25° C., pH 6.2
  kobs /[I]* (approximate second-order inactivation constant): 100 M⁻¹ s⁻¹
calpain
  kobs /[I]*: 260 M⁻¹ s⁻¹
